Reference: patent publication US5985856A, “Water soluble prodrugs of secondary and tertiary amine containing drugs and methods of making thereof” (University of Kansas, priority 1998, dated 1999)
≈ marks a conversion by molar mass, not a printed value. Like-named read-outs stand apart in the source and are kept apart here.

Legend:
[1] = physchem; type: physicochemical; details: for solubility: 24 h
Experimental: Each pH solution contains 0.05 M buffer with an ionic strength adjusted to μ=0.2 with NaCl. The pH 3 buffer composition is HCl/CH3 COONa; whereas, the pH 7.4 buffer composition is NaH2 PO4 /Na2 HPO4. The volume of buffer used in the experiments is 150 μl. To this is added excess of the loxapine prodrug in one ml glass screw top vials. The vials are then capped, sonicated and vortexed prior to submersion in a constant temperature shaking water bath at 25° C. The samples are shaken at a rate of 100 shakes/min. for at least 24 hours. The suspensions are then placed in a micro centrifuge to precipitate the excess drug. A volume of 50 μl of the supernatant is then appropriately diluted with water for quantification by reverse phase HPLC. […] A C-18 reversed phase column (150×4 mm, ODS Hypersil, 5 μm particle size) is used for the analysis. The HPLC assays are carried out using UV detection at 254 nm. The mobile phase consists of acetonitrile and 25 mM of aqueous potassium phosphate monobasic solution adjusted to pH 3.8 with phosphoric acid. 0.15% of triethylamine is contained in the aqueous buffer. The ratio of organic:aqueous is 32:68. The retention time is 4.2 min. when the flow rate is adjusted to 1 ml/min.

[2] = Preliminary visual solubility estimates of synthesized prodrugs; type: physicochemical; details: preliminary visual estimate, pH 7.4
Description: The present prodrugs are designed to increase the aqueous solubility and safety of amine-containing drugs. Preliminary visual solubility estimates for each of the prodrugs are listed below in Table 2.

[3] = pKa determination by 31P NMR method; details: 10% d2o in h2o
[4] = physchem; type: physicochemical; details: water
Experimental: A 0.01 M quinuclidine prodrug aqueous solution is titrated using a burette containing a 0.1 N sodium hydroxide volumetric standard solution obtained from Aldrich Chemical Company (Milwaukee, Wis.). […] This experiment is conducted at 25° C.
The first ionization constant, Ka1, is expected to be low and to be of little physiological importance; however, Ka2 is of much greater importance. With this in mind, the second ionization constant (Ka2) for the phosphate monoester promoiety of the quinuclidine was determined by two methods. These methods were potentiometric titration and ^31 P NMR. The potentiometric titration is by far the most traditional and accepted means for estimating pKa values; however, it has one main disadvantage. It requires significant quantities of, difficult to synthesize, prodrug. The quinuclidine prodrug is, by far, the simplest prodrug to synthesize and was chosen for the following experiments for that reason. For the potentiometric titration method, the volume of base added was plotted against the change in pH. This plot allows one to determine the volume of base required to reach the endpoint of the titration.

[5] = physchem; details: 10% d2o in h2o
[6] = physchem; type: physicochemical
Experimental: Loxamine succinate is obtained from Research Biochemicals Incorporated (Natick, Mass.). […] Each pH solution is a 0.05 M buffered solution with an ionic strength adjusted to μ=0.2 with NaCl. The pH values along with their buffer composition are listed: pH 3.24, HCl/CH3 COONa; pH 3.96 and 4.96, CH3 COOH/CH3 COONa; pH 5.82-7.94, NaH2 PO4 /Na2 HPO4; pH 8.95 and 9.98, H3 BO3 /NaOH. The volume of buffer used in the experiments varies; samples with pH equal to or below 4.96 utilize 2 ml of buffer whereas the higher pH samples has a volume of 5 ml. […] The vials are then capped, sonicated and vortexed prior to submersion in a constant temperature shaking water bath at 25° C. The samples are shaken at a rate of 100 shakes/min. for at least 24 hours. […] The filtrates/supernatants are then appropriately diluted for quantification by HPLC. […] A C-18 reversed phase column (150×4 mm, ODS Hypersil, 5 μm particle size) is used for the analysis. The HPLC assays are carried out using UV detection at 254 nm. The mobile phase consists of acetonitrile and 25 mM of aqueous potassium phosphate monobasic solution adjusted to pH 3.8 with phosphoric acid. 0.15% of triethylamine is contained in the aqueous buffer.

[7] = dog, in vivo
Experimental: (§1) Cinnarizine for i.v. injection was prepared in a 10 mM phosphate buffer solution at pH 4.5 at a concentration of 12.5 mg/10 ml (3.39 mM) along with 37.5 mM sulfobutylether 4 beta-cyclodextrin as a solubilizing excipient. The cyclodextrin solution (10 ml) was prepared first and the pH adjusted to 3.5 with HCl. The cinnarizine was then added and the solution was sonicated for three hours and subsequently stirred overnight. The pH was then adjusted to 4.5 with NaOH along with the addition of 29 mg of NaCl to adjust for isotonicity. The solution was then passed through a 0.22 μM nylon-membrane filter just prior to administration. The prodrug injection was prepared by dissolving 16.97 mg or cinnarizine prodrug in 10 ml of 0.9% NaCl sterile solution (3.39 mM) for injection. The solution was passed through a 0.22 μM nylon-membrane filter just prior to injection.
(§2) The evaluation of the cinnarizine plasma concentration versus time was conducted with a male beagle dog weighing 11.1 kg. The dog received the cinnarizine injection followed by a two-week washout period then received the prodrug injection in an equal molar quantity. Samples were taken from the dog prior to dosing (10 ml blank plasma) and 2, 6, 10, 20, 40 min and 1, 2, 4, 6, 8, 24 hours post-dosing (3 ml each). Blood samples were drawn from either cephalic, saphenous, or jugular vein. The samples were centrifuged for 10 minutes and 1 ml of plasma was measured and frozen at -20° C. prior to sampling by HPLC. The dog received a regular diet between experiments and was fasted the day of the experiment.
(§3) Plasma concentrations of cinnarizine were determined by HPLC with fluorescence detection. To each one milliliter of plasma was added: 100 μL of acetonitrile-H2O (70:30, v/v), containing 40 μg meclizine (internal standard), and 100 μL of 0.5 M HCl. The plasma sample was then vortexed for 30 seconds. One ml of carbon tetrachloride was then combined with the sample for an additional one minute of vortexing. Samples were then centrifuged for ten minutes after which the carbon tetrachloride was removed and evaporated to dryness under a stream of dry nitrogen. The residue was then redissolved in 200 μL of acetonitrile-H2 O (70:30, v/v) prior to sampling by HPLC. The results were calculated from peak area ratios. A six-point standard curve was obtained using the above procedure with addition of cinnarizine concentrations in the range of 5.5 to 550 ng/ml of plasma. A three-point calibration was performed on the day of the study using high, medium and low cinnarizine concentrations. This calibration was used for the quantification of cinnarizine concentration in the samples.
(§4) The HPLC system consisted of a Shimadzu LC-6A pump (Kyoto, Japan), a Rheodyne 7125 injector (Cotati, Calif.), a Shimadzu RF-535 Fluorescence HPLC monitor (Kyoto, Japan), and a Shimadzu CR-601 integrator (Kyoto, Japan). The HPLC conditions were as follows: injection volume, 50 μL; flow rate, 1.5 ml/min; excitation at 260 nm and emission at 315 nm. The stationary phase was a C18 ODS Hypersil reverse phase column (15 cm×4.6 mm i.d., 5 μM). The mobile phase was a 7 to 3 ratio of aceronitrile to buffer, respectively. The buffer consisted of 25 mmole potassium dihydrogen phosphate (adjusted to pH 3.9 with phosphoric acid) and 10 mM tetrabutyl ammonium dihydrogen phosphate.
(§5) Pharmacokinetic analysis was performed on the semilogarithmic plot of cinnarizine plasma concentration versus time post dosing for both the cinnarizine and cinnarizine prodrug injections. […] The equation had the form: C=A1e^-A1t +A2e^-A2t +A3e^-A3t, where t is time. Plasma terminal half life (t1/2) is calculated from t1/2 =0.693/λ3.

[8] = Pharmacokinetic evaluation of cinnarizine plasma concentration after i.v. injection; details: male beagle dog
Experimental: as §1, §2, §3, §4, §5

[9] = in vivo; details: dog, iv
Experimental: as §1, §2, §3, §4, §5

[10] = 0.05 m hcl/ch3coona buffer, pH 3
[11] = 0.05 m nah2po4/na2hpo4 buffer, pH 7.4

C[N+]1(COP(=O)([O-])O)CCN(C2=Nc3ccccc3Oc3ccc(Cl)cc32)CC1 [loxapine prodrug]
solubility [1, 10]: 290.5 ± 2.9 mg/mL (≈ 664 mM)
solubility at 24 h [1, 10]: 290.5 ± 2.9 mg/mL (≈ 664 mM)
solubility [1, 11]: 648.2 ± 0.6 mg/mL (≈ 1480 mM)
solubility at 24 h [1, 11]: 648.2 ± 0.6 mg/mL (≈ 1480 mM)
solubility limit relative to the concentration used in the parenteral formulation (50 mg/ml loxapine) ([1]; without cosolvents): 9.7 times
solubility [2]: > 600 mg/mL
pKa [3]: 4.7

O=P([O-])(O)OC[N+]12CCC(CC1)CC2 [quinuclidine prodrug]
pKa [4]: 5
pKa [5]: 4.9

CN1CCN(C2=Nc3ccccc3Oc3ccc(Cl)cc32)CC1 [Loxapine free base, Loxapine]
solubility ([6]; 0.05 m buffer, aqueous buffer): 0.0126 mg/mL (≈ 0.0384 mM)
solubility ([6]; hcl/ch3coona buffer, pH 3.24): 8.23 mg/mL (≈ 25.1 mM)

CCCCc1oc2ccccc2c1C(=O)c1cc(I)c(OCC[N+](CC)(CC)COP(=O)([O-])O)c(I)c1 [amiodarone prodrug]
solubility [2]: > 5 mg/mL

O=P([O-])(O)OC[N+]1(C/C=C/c2ccccc2)CCN(C(c2ccccc2)c2ccccc2)CC1 [cinnarizine prodrug]
solubility [2]: > 5 mg/mL
conversion of prodrug to cinnarizine upon intravenous administration [7]: rapidly and quantitatively converted to cinnarizine
Cl ([7]; iv): 19.5 mL/min/kg
Vd ([7]; iv): 21.2 L/kg
t1/2 (plasma terminal half life of cinnarizine) ([7]; iv): 12.6 h
observable signs of discomfort or toxicity after injection [8]: no observable signs of discomfort or toxicity

C(=C\c1ccccc1)/CN1CCN(C(c2ccccc2)c2ccccc2)CC1 [Cinnarizine]
Vd [9]: 21.7 L/kg
clearance [9]: 19.5 mL/min/kg
half-life [9]: 12 h
observable signs of discomfort or toxicity after injection [8]: no observable signs of discomfort or toxicity
